SMILES strings stand for the structures.

What all share (format): in vivo
For experiment [1], the system named is Alopecurus myosuroides. Briefly: Herbicidal action against Alopecurus myosuroides, single ingredients and combinations, with Colby expected action. The text has this: (§1) A synergistic effect is present in the case of herbicides whenever the herbicidal action of the active ingredient combination is greater than that of the individual active ingredients applied.
(§2) The anticipated action for a given combination of two herbicides can be calculated as follows (cf. COLBY, S. R.: “Calculating synergistic and antagonistic responses of herbicide combinations”, Weeds 15, pages 20-22, 1967):
(§3) If • X=% damage by herbicide A (active ingredient of formula I) at p kg/ha application rate • and • Y=% damage by herbicide B (active ingredient of Formula II) at q kg/ha application rate • and • E=the expected damage of the herbicides A and B at p and q kg/ha application rate, • then E=X+Y−(X*Y/100).

Experiment [2] has as its system Amaranthus rudis. The experiment is described as follows: Herbicidal action against Amaranthus rudis, single ingredients and combinations, with Colby expected action.
Text: as §1, §2, §3

The subject of experiment [3] is Galium aparine. The experiment is described as follows: Herbicidal action against Galium aparine, single ingredients and combinations, with Colby expected action. To be noted: Table A-3 (first); application rate 3.75 g a.i./ha.
Text: as §1, §2, §3

For the compound `CS(=O)(=O)c1ccc(C(=O)C2C(=O)CCCC2=O)c(Cl)c1COCC1CCCO1` (centres unmarked) [Compound (B.7)], the “Action against Alopecurus myosuroides (%)” value in experiment [1] (Table A-1, application rate 3.75 g a.i./ha) is listed as 0%; in experiment [1] (Table A-3 (second), application rate 7.5 g a.i./ha), 0%. In addition, the “Action against Amaranthus rudis (%)” value worked out at 35% in experiment [2] (Table A-2, application rate 3.75 g a.i./ha) and 0% in experiment [2] (Table A-4, application rate 7.5 g a.i./ha). Besides, the “Action against Galium aparine (%)” value in experiment [3] is reported as 0%.

The values are drawn from patent US20080004180A1, “Novel Herbicides Based on Substituted Thien-3-Yl-Sulphonylamino(Thio) Carbonyl-Triazolin(Thi)Ones and 4-Hppd-Inhibitors” (Bayer Cropscience AG, priority 2004, published 2008).
